# Patent US4767624A, “Decubital remedy” (priority 1985, dated 1988)
# Read-outs that look alike come from different tables or passages of the source.
# Legend:
# [1] = Blepharo-irritation; assay type: in vivo; conditions: 1% in squalane
# [2] = test system: skin; test: Cumulative irritation; assay type: in vivo; conditions: 1% in squalane
# [3] = Optical challenge (Adjuvante & strip method); assay type: in vivo; conditions: induction 10% acetone
# Excerpt: |(Adjuvante & strip method)
# [4] = test system: radiation dermatitis or radiation ulcers; conditions: previous trial use, publications (1) and (2); cited from earlier work
# [5] = Challenge (Adjuvante & patch method); assay type: in vivo; conditions: induction 5% acetone
# Excerpt: Challenge Induction: 5% acetone
# (Adjuvante & patch method)
# [6] = test system: skin; test: Patch test; assay type: in vivo; conditions: 1% in squalane
# [7] = Phototoxicity; assay type: in vivo; conditions: 1% and 10% in squalane
# [8] = test system: Wistar rats; test: Subacute oral toxicity, rats; assay type: in vivo; conditions: oral, 40, 200 and 1,000 mg/kg/day, 5 weeks
# Method: (§1) Ubidecarenone was continuously and orally administered to male and female Wistar rats at doses of 40, 200 and 1,000 mg/kg/day for 5 weeks and to male and female rabbits at doses of 60 and 600 mg/kg/day for 23 days.
# [9] = test system: heart muscle; conditions: ischemic state; cited from earlier work
# [10] = cited from earlier work
# [11] = test system: skin; test: Primary cutaneous irritation; assay type: in vivo
# [12] = Stability upon cutaneous administration; assay type: physicochemical
# [13] = test system: rabbits; test: Subacute oral toxicity, rabbits; assay type: in vivo; conditions: 60 and 600 mg/kg/day, 23 days
# Method: as §1
smiles,measurement,setting,value
COC1=C(OC)C(=O)C(C/C=C(\C)CC/C=C(\C)CC/C=C(\C)CC/C=C(\C)CC/C=C(\C)CC/C=C(\C)CC/C=C(\C)CC/C=C(\C)CC/C=C(\C)CCC=C(C)C)=C(C)C1=O [Ubidecarenone],"Blepharo-irritation, conclusion",[1],low blepharo-irritation
same,Cumulative irritation,[2],0.3
same,"Cumulative irritation, conclusion",[2],low skin irritation
same,Optical challenge,[3]; 0.5% in acetone,0/5
same,"Optical challenge, conclusion",[3]; 0.5-10% in acetone,low optical challenge
same,Optical challenge,[3]; 1% in acetone,0/5
same,Optical challenge,[3]; 2% in acetone,0/5
same,Optical challenge,[3]; 5% in acetone,0/5
same,Optical challenge,[3]; 10% in acetone,0/5
same,effectiveness in radiation dermatitis or radiation ulcers,[4],superb effectiveness
same,Challenge,[5]; 1% in acetone,0/10
same,"Challenge, conclusion",[5]; 5% and 1% in acetone,low challenge
same,Challenge,[5]; 5% in acetone,0/10
same,Patch test,[6],0/54
same,"Patch test, conclusion",[6],low skin irritation
same,"Phototoxicity, conclusion",[7],low phototoxicity
same,"difference from controls in general conditions, blood test, urine test and morphological observation",[8],Neither rats nor rabbits developed any difference compared with their respective controls
same,damage of ischemic cardiac muscular tissue,[9],reduce the damage
same,percent oxygen utilization in heart muscle,[9],improve the percent oxygen utilization in heart muscle
same,solubility,[10]; methanol,scarcely soluble
same,solubility,[10]; oil,oil-soluble
same,solubility,[10]; water,scarcely soluble
same,Primary cutaneous irritation,[11]; 1% in squalane,0.1
same,"Primary cutaneous irritation, conclusion",[11]; 1% in squalane,low skin irritation
same,irritation to the skin,"[11]; cutaneous administration, summary of Table 1",low irritation to the skin
same,stability upon cutaneous administration,[12],good stability
same,"difference from controls in general conditions, blood test, urine test and morphological observation",[13],Neither rats nor rabbits developed any difference compared with their respective controls
